From US10925858B2, “S-nitrosoglutathione (GSNO) and GSNO reductase inhibitors for use in therapy” (MUSC FOUNDATION FOR RESEARCH DEVELOPMENT, priority 2017, dated 2021)

Experiments:
3-nitrotyrosine = test: Western analysis of 3-nitrotyrosine in rat brains with TBI; type: in vivo, Sprague Dawley rats; conditions: 24 hr after TBI, traumatic penumbra; GSNO 0.05 mg/kg i.v. or FeTPPS 3 mg/kg i.v.
Protocol: Western immunoblot analysis was performed by standard method using 50 μg of cell lysates. Following the SDS-PAGE electrophoresis, proteins were transferred from the gel onto the Polyvinylidene fluoride membrane (GE Healthcare Life Sciences, Marlborough, Mass.). Membranes were blocked with non-fat dry milk (Santa Cruz Biotechnology) or I-Block™ (ThermoFisher Scientific, Waltham, Mass.) for detection of phospho-proteins and incubated with primary antibodies, such as MBP (Santa Cruz Biotech Cat #: sc13914; RRID: AB_648798), phospho-(Ser^19) MLC (Abeam, Cat #: ab2480; RRID: AB_303094), MLC (Abeam, Cat #: ab79935; RRID:AB_1952220), P-actin (Santa Cruz Biotechnology, Cat #: sc-47778; RRID:AB_2714189), phospho-eNOS (Ser^1177) (Cell Signaling, Cat #: 9571; RRID: AB_329837, Danvers, Mass.), eNOS (Cell Signaling, Cat #: 32027), RhoA (Santa Cruz Biotechnology; Cat #: sc418; RRID: AB_628218) or 3-nitrotyrosine (Abeam, Cat #: ab61392; RRID: AB_942087). […]
All animals used in this study received humane care in compliance with the Medical University of South Carolina's (MUSC) guidance and the National Research Council's criteria for humane care. […] The group size was determined by power analysis based on our previous data (Khan et al., 2016b; Khan et al., 2009). […]

mononuclear cells = test: H&E staining, spinal cord infiltration of mononuclear cells in EAE mice; type: in vivo, C57BL/6 mice; conditions: 1 mg/kg/day
Protocol: Female C57BL/6 mice of 8-12 weeks of age, purchased from Jackson Laboratory, were provided with food and water ad libitum and were kept in pathogen free animal care facility of Medical University of South Carolina (MUSC) throughout the study. All procedures were conducted in accordance with accepted standards of humane care as approved by the Institutional Animal Care and Use Committee (Approved number: AR #1644). EAE was induced as described previously (Nath et al., 2009). Briefly, mice were immunized subcutaneously in the flank regions with MOG35-55 peptide (MOG; 200 μg; Peptide International) emulsified (1:1) in 100 ul complete Freund's adjuvant (CFA) on day 0 and day 7. Additionally, 300 ng of Pertussis toxin (Sigma-Aldrich, St. Louis, Mo.) was given on day 0 and day 2 by i.p. injection. […] Clinical signs of EAE were scored by examiners blinded to experimental treatments using the following scale: 0=no clinical signs of disease; 1=piloerection and sluggish; 2=limp tail (ataxia); 2.5=ataxia with partial hind limb paralysis; 3=full paralysis of hind limb; 3.5=full paralysis of hind limb with paralysis of one fore limb; 4=full paralysis of two limbs; 4.5=moribund stage; 5=death. […]
Tissue samples were embedded in paraffin block and sectioned transversely (5 μm-thick). […] For the quantitation of infiltrates, the digital images were analyzed by ImageJ (NIH, Bethesda, Md.). […]

[1] = tested on: CD4+ T cells (TH1, TH2, TH17, Treg); test: Fluorescence flow cytometry, polarization/expansion of CD4+ T cell subsets in spleens of EAE mice; set-up: species or system C57BL/6 mice; conditions: EAE mice at peak of disease, ex vivo MOG restimulation
Protocol: Female C57BL/6 mice of 8-12 weeks of age, purchased from Jackson Laboratory, were provided with food and water ad libitum and were kept in pathogen free animal care facility of Medical University of South Carolina (MUSC) throughout the study. All procedures were conducted in accordance with accepted standards of humane care as approved by the Institutional Animal Care and Use Committee (Approved number: AR #1644). EAE was induced as described previously (Nath et al., 2009). Briefly, mice were immunized subcutaneously in the flank regions with MOG35-55 peptide (MOG; 200 μg; Peptide International) emulsified (1:1) in 100 ul complete Freund's adjuvant (CFA) on day 0 and day 7. Additionally, 300 ng of Pertussis toxin (Sigma-Aldrich, St. Louis, Mo.) was given on day 0 and day 2 by i.p. injection. Pertussis toxin used as per the standardized protocol reported by us and other investigators for the induction of EAE (Nath et al., 2009). Similarly, healthy control group received subcutaneous injection of PBS and CFA emulsion on day 0 and day 7. Clinical signs of EAE were scored by examiners blinded to experimental treatments using the following scale: 0=no clinical signs of disease; 1=piloerection and sluggish; 2=limp tail (ataxia); 2.5=ataxia with partial hind limb paralysis; 3=full paralysis of hind limb; 3.5=full paralysis of hind limb with paralysis of one fore limb; 4=full paralysis of two limbs; 4.5=moribund stage; 5=death. […] The drug treatments were continued till the termination of the study (day 41 post immunization). EAE animals without drug treatment received PBS. Likewise, healthy controls received vehicle.
Fluorescence flow cytometry analysis for each subset of CD4+ T cells (TH1, TH2, TH17, CD4+CD25+ FOXP3+ Treg, and CD4+CD25+ FOXP3− Treg) were performed based on our previous report with modification (Nath et al., 2004). Briefly, control mice, EAE mice. EAE mice treated with GSNO. […] Following the preparation of single cell suspension, red blood cells were lysed with Pharma lyse buffer (BD Pharmingen™) and the remaining spleen cells were washed with RPMI 1640. The isolated CD4+ T cells were then resuspended with complete RPMI-media in 12-well plates (5×10^6 cells' 2 ml per well) containing MOG peptide (25 μg/ml) for 48 hrs. Following the centrifugation, the resulted supernatants were collected for ELISA for CD4+ subset specific cytokines (see below). The cell pellets were washed with cell staining solution (ebioscience, Waltham, Mass. USA) and stained with fluorescence labeled antibody specific to IFN-γ for TH1. IL-4 for TH2, IL-17 for TH17, CD25+ for total Treg. CD25+ and FOXP3+ for FOXP3+ Treg, and CD25+ and FOXP3− for FOXP3-Tregs (ebioscience, Waltham, Mass., USA). The cells were counted and analyzed using Beackman Coulter instrument (Beckman Coulter, Inc., Brea, Calif., USA).

Row | SMILES | brain levels of 3-nitrotyrosine (3-nitrotyrosine) | spinal cord infiltration of mononuclear cells (mononuclear cells) | TH2 polarization/expansion in spleens [1] | polarization/expansion of CD4+CD25+ FOXP3+ Treg cells in spleens [1] | polarization/expansion of CD4+CD25+ FOXP3− Treg cells in spleens [1] | polarization/expansion of TH1 cells in spleens [1] | polarization/expansion of TH17 cells in spleens [1] | polarization/expansion of total Treg cells (CD4+CD25+) in spleens [1]
1 | Cl.O=S(=O)([O-])c1ccc(-c2c3nc(c(-c4ccc(S(=O)(=O)O)cc4)c4ccc([nH]4)c(-c4ccc(S(=O)(=O)O)cc4)c4nc(c(-c5ccc(S(=O)(=O)O)cc5)c5ccc2[nH]5)C=C4)C=C3)cc1.[Fe] [FeTPPS, 5,10,15,20-Tetrakis(4-sulfonatophenyl)porphyrinato Iron (III), Cl, reference compound] | reduced |  |  |  |  |  |  | 
2 | Cc1cc(C(N)=O)ccc1-n1c(CCC(=O)O)ccc1-c1ccc(-n2ccnc2)cc1 [N6022, reference compound] |  | significantly reduced | fully restored | restored | increased | reduced | reduced | 
3 | N[C@@H](CCC(=O)N[C@@H](CSN=O)C(=O)NCC(=O)O)C(=O)O [GSNO, S-nitrosoglutathione] | reduced | reduced |  | without altering | significantly increased | no obvious effect | significantly decreased | increased
